Data: US8343988B2, “Inhibitors of histone deacetylase” (Janssen Pharmaceutica, N.V, priority 2002, dated 2013)
Values after ≈ are worked out from the molar mass of the structure shown. Where two headings read alike, the source gives them in different places.

Legend:
[1] = target: histone deacetylase (HeLa nuclear extracts); test: In vitro assay for inhibition of histone deacetylase; format: biochemical; settings: [3H]acetylated histone H4 peptide substrate, 30 min
Description: The in vitro assay for inhibition of histone deacetylase (see example C.1) measures the inhibition of HDAC enzymatic activity obtained with the compounds of formula (I).
HeLa nuclear extracts (supplier: Biomol) were incubated at 60 μg/ml with 2×10^−8 M of radiolabeled peptide substrate. As a substrate for measuring HDAC activity a synthetic peptide, i.e. the amino acids 14-21 of histone H4, was used. The substrate is biotinylated at the NH2-terminal part with a 6-aminohexanoic acid spacer, and is protected at the COOH-terminal part by an amide group and specifically [^3H]acetylated at lysine 16. The substrate, biotin-(6-aminohexanoic)Gly-Ala-([^3H]-acetyl-Lys-Arg-His-Arg-Lys-Val-NH2), was added in a buffer containing 25 mM Hepes, 1 M sucrose, 0.1 mg/ml BSA and 0.01% Triton X-100 at pH 7.4. After 30 min the deacetylation reaction was terminated by the addition of HCl and acetic acid. (final concentration 0.035 mM and 3.8 mM respectively). After stopping the reaction, the free ^3H-acetate was extracted with ethylacetate. After mixing and centrifugation, the radioactivity in an aliquot of the upper (organic) phase was counted in a β-counter.
For each experiment, controls (containing HeLa nuclear extract and DMSO without compound), a blank incubation (containing DMSO but no HeLa nuclear extract or compound) and samples (containing compound dissolved in DMSO and HeLa nuclear extract) were run in parallel. […] The control sample represented 100% of substrate deactylation. For each sample the radioactivity was expressed as a percentage of the mean value of the controls. […] Herein the effects of test compounds are expressed as pIC50 (the negative log value of the IC50-value).

[2] = test system: A2780 ovarian carcinoma cells; test: Antiproliferative activity on A2780 cells (MTT); format: cell-based; settings: Homo sapiens, 96 h, four days of incubation, read-out: Cellular activity pIC50 (converted)
Description: Cellular activity of the compounds of formula (I) was determined on A2780 tumour cells using a […] assay for cell toxicity or survival (Mosmann Tim, Journal of Immunological Methods 65: 55-63, 1983)(see example C.2).
All compounds tested were dissolved in DMSO and further dilutions were made in culture medium. Final DMSO concentrations never exceeded 0.1% (v/v) in cell proliferation assays. Controls contained A2780 cells and DMSO without compound and blanks contained DMSO but no cells. MTT was dissolved at 5 mg/ml in PBS. A glycine buffer comprised of 0.1 M glycine and 0.1 M NaCl buffered to pH 10.5 with NaOH (1 N) was prepared (all reagents were from Merck).
The human A2780 ovarian carcinoma cells (a kind gift from Dr. T. C. Hamilton [Fox Chase Cancer Centre, Pennsylvania, USA]) were cultured in RPMI 1640 medium supplemented with 2 mM L-glutamine, 50 μg/ml gentamicin and 10% fetal calf serum. Cells were routinely kept as monolayer cultures at 37° C. in a humidified 5% CO2 atmosphere. Cells were passaged once a week using a trypsin/EDTA solution at a split ratio of 1:40. All media and supplements were obtained from Life Technologies. Cells were free of mycoplasma contamination as determined using the Gen-Probe Mycoplasma Tissue Culture kit (supplier: BioMérieux).
Cells were seeded in NUNC™ 96-well culture plates (Supplier: Life Technologies) and allowed to adhere to the plastic overnight. Densities used for plating were 1500 cells per well in a total volume of 200 μl medium. After cell adhesion to the plates, medium was changed and drugs and/or solvents were added to a final volume of 200 μl. Following four days of incubation, medium was replaced by 200 μl fresh medium and cell density and viability was assessed using an MTT-based assay. To each well, 25 μl MTT solution was added and the cells were further incubated for 2 hours at 37° C. The medium was then carefully aspirated and the blue MTT-formazan product was solubilized by addition of 25 μl glycine buffer followed by 100 μl of DMSO. […] Within an experiment, the results for each experimental condition are the mean of 3 replicate wells. For initial screening purposes, compounds were tested at a single fixed concentration of 10^−6 M. For active compounds, the experiments were repeated to establish full concentration-response curves. For each experiment, controls (containing no drug) and a blank incubation (containing no cells or drugs) were run in parallel. The blank value was subtracted from all control and sample values. For each sample, the mean value for cell growth (in absorbance units) was expressed as a percentage of the mean value for cell growth of the control. […] Herein the effects of test compounds are expressed as pIC50 (the negative log value of the IC50-value).

[3] = Kinetic solubility in aqueous media; format: physicochemical; settings: aqueous buffer, kinetic from dmso stock; phosphate citrate buffer pH 7.4, turbidity by nephelometer; read-out: Solubility Score
Description: Kinetic solubility in aqueous media measures the ability of a compound to stay in aqueous solution upon dilution (see example C.3).
DMSO-stock solutions are diluted with a single aqueous buffer solvent in 3 consecutive steps. For every dilution turbidity is measured with a nephelometer.
In the first dilution step, 10 μl of a concentrated stock-solution of the active compound, solubilized in DMSO (5 mM), was added to 100 μl phosphate citrate buffer pH 7.4 and mixed. In the second dilution step, an aliquot (20 μl) of the first dilution step was further dispensed in 100 μl phosphate citrate buffer pH 7.4 and mixed. Finally, in the third dilution step, a sample (20 μl) of the second dilution step was further diluted in 100 μl phosphate citrate buffer pH 7.4 and mixed. All dilutions were performed in 96-well plates. Immediately after the last dilution step the turbidity of the three consecutive dilution steps were measured with a nephelometer. Dilution was done in triplicate for each compound to exclude occasional errors. Based on the turbidity measurements a ranking is performed into 3 classes. Compounds with high solubility obtained a score of 3 and for this compounds the first dilution is clear. Compounds with medium solubility obtained a score of 2. For these compounds the first dilution is unclear and the second dilution is clear. […] The solubility of 6 compounds was measured.

[4] = not given; remark: listed apart in the source

| Compound | Enzyme activity pIC50 [1] | IC50 [2] [nM] | also measured |
| --- | --- | --- | --- |
| O=C(NO)c1cnc(N2CCN(Cc3ccc(-c4ccc(CN5CCOCC5)cc4)o3)CC2)nc1 [Co. No. 9] | 7.889 | 97.9 | solubility [3]: > 454 µM |
| O=C(NO)c1cnc(N2CCN(Cc3ccc(-c4ccc(CN5CCOCC5)cc4)o3)CC2)nc1 (hydrate or solvate) [Co. No. 9] | – | – | melting point: 140 °C |
| O=C(NO)c1ccc(N2CCN(c3ccc(C(F)(F)F)cn3)CC2)c([N+](=O)[O-])c1 [compound 25] | 5 | – | – |
| O=C(NO)c1ccc(N2CCN(c3ccccc3F)CC2)c([N+](=O)[O-])c1 [compound 23] | >5 | – | – |
| O=C(NO)c1ccc(N2CCN(c3cccc(Cl)c3)CC2)c([N+](=O)[O-])c1 [compound 11] | <5 | – | – |
| O=C(NO)c1ccc(CN2CCN(c3cccc4ccccc34)CC2)cc1 [compound 50] | 5.206 | – | solubility [3]: 75.8 to 454 µM (≈ 27.4 to 164 µg/mL) |
| O=C(NO)c1ccc(N2CCN(Cc3ccccc3)CC2)cc1 [Co. No. 2] | 6.377 | 9120 | solubility [3]: > 454 µM; melting point: 196 °C |
| O=C(NO)c1ccc(N2CCN(Cc3ccc4c(c3)OCO4)CC2)c([N+](=O)[O-])c1 [compound 22] | >5 | – | – |
| COc1cc2c(=O)n(CC3CCN(c4ncc(C(=O)NO)cn4)CC3)c(C)nc2c(OC)c1OC [Co. No. 8] | 7.365 | 372 | – |
| O=C(NO)c1cnc(N2CCN(C3CCN(S(=O)(=O)c4ccc5ccccc5c4)CC3)CC2)nc1 [Co. No. 3] | 7.28 | 964 | solubility [3]: < 75.8 µM; melting point: 210 °C |
| O=C(NO)c1cnc(N2CCC(Cn3c(-c4ccccc4)nc4ccccc4c3=O)CC2)nc1 [Co. No. 10] | 7.427 | 658 | – |
| O=C(NO)c1cccc(CN2CCN(c3cccc4ccccc34)CC2)c1 [compound 49] | <5 | – | solubility [3]: 75.8 to 454 µM (≈ 27.4 to 164 µg/mL) |
| CCC(C)n1nc(C)n(-c2ccc(N3CCCN(c4ccc(C(=O)NO)cc4)CC3)cc2)c1=O (stereo not drawn) [Co. No. 1] | 5.121 | 15000 | solubility [3]: > 454 µM |
| O=C(NO)c1ccc(N2CCC(Cc3ccccc3)CC2)c([N+](=O)[O-])c1 [compound 27] | <5 | – | – |
| O=C(NO)c1ccc(N2CCN(CCCC(c3ccc(F)cc3)c3ccc(F)cc3)CC2)c([N+](=O)[O-])c1 [compound 12] | >5 | – | – |
| O=C(NO)c1ccc(N2CCN(c3ccc(Cl)c(Cl)c3)CC2)c([N+](=O)[O-])c1 [compound 17] | >5 | – | – |
| CCC(C)n1nc(C)n(-c2ccc(N3CCCN(c4ccc(C(=O)NO)cc4)CC3)cc2)c1=O (stereo not drawn) (hydrate or solvate) [Co. No. 1] | – | – | melting point: 182 to 184 °C |
| O=C(NO)c1cnc(N2CCC(Cn3c(-c4cccnc4Oc4ccccc4)nc4cccc(F)c4c3=O)CC2)nc1 [compound 53] | 7.295 | – | – |
| O=C(NO)c1ccc(N2CCN(c3ccc(Cl)cc3)CC2)c([N+](=O)[O-])c1 [compound 20] | <5 | – | – |

| Compound | Enzyme activity pIC50 [1] | IC50 [2] [nM] | also measured |
| --- | --- | --- | --- |
| O=C(NO)c1ccc(N2CCN(C3CCCCC3)CC2)c([N+](=O)[O-])c1 [compound 16] | 5.698 | – | – |
| O=C(NO)c1cnc(N2CCN(Cc3ccc(-c4ccc(CO)cc4)o3)CC2)nc1 [Co. No. 5] | 8.035 | 153 | solubility [3]: > 454 µM; melting point: 219 °C |
| O=C(NO)c1cnc(N2CCC(N3CCN(S(=O)(=O)c4ccc5ccccc5c4)CC3)CC2)nc1 [Co. No. 4] | 7.306 | 658 | solubility [3]: > 454 µM; melting point: 230 °C |
| O=C(NO)c1ccc(N2CCN(c3ccccn3)CC2)c([N+](=O)[O-])c1 [compound 18] | >5 | – | – |
| O=C(NO)c1ccc(N2CCC(n3c(=O)[nH]c4ccccc43)CC2)c([N+](=O)[O-])c1 [compound 28] | >5 | – | – |
| O=C(NO)c1ccc(N2CCN(c3ccc(C(F)(F)F)cc3)CC2)c([N+](=O)[O-])c1 [compound 26] | >5 | – | – |
| O=C(NO)c1cc([N+](=O)[O-])ccc1N1CCC(Cc2ccccc2)CC1 [compound 14] | <5 | – | – |
| O=C(NO)c1cc([N+](=O)[O-])ccc1N1CCN(c2ccccc2Cl)CC1 [compound 13] | <5 | – | – |
| O=C(NO)c1ccc(N2CCN(c3ncccn3)CC2)c([N+](=O)[O-])c1 [compound 21] | 5 | – | – |
| O=C(NO)c1cnc(N2CCN(CCc3ccc4ccccc4c3)CC2)nc1 [Co. No. 7] | 7.952 | 444 | solubility [3]: > 454 µM; melting point: 209 °C |
| COc1cc(N)c(Cl)cc1C(=O)NC1CCN(CCCOc2ccc(F)cc2)CC1OC (stereo not drawn) [Cisapride] | – | – | % metabolism ([4]; human, 15 min, 5 μM): 45% |
| COc1ccccc1N1CCN(c2ccc(C(=O)NO)cc2[N+](=O)[O-])CC1 [compound 15] | >5 | – | – |
| CCCO [propanol] | – | – | % metabolism ([4]; 15 min incubation with active microsomes, compound 5 μM): 25% |
| Cc1ccc2nc(-c3cc4ccccc4o3)n(CC3CCN(c4ncc(C(=O)NO)cn4)CC3)c(=O)c2c1 [compound 52] | 7.235 | 1170 | – |
| O=C(NO)c1ccc(N2CCN(Cc3ccccc3)CC2)c([N+](=O)[O-])c1 [compound 24] | <5 | – | – |
| O=C(NO)c1cnc(N2CCC(Cn3c(C(c4ccccc4)C4CCCC4)nc4cccc(F)c4c3=O)CC2)nc1 (stereo not drawn) [compound 54] | 6.176 | – | – |
| O=C(NO)c1ccc(N2CCN(c3cccc(C(F)(F)F)c3)CC2)c([N+](=O)[O-])c1 [compound 19] | >5 | – | – |
| Cc1nc2ccccc2c(=O)n1CC1CCN(c2ncc(C(=O)NO)cn2)CC1 [compound 51] | 7.561 | 1180 | – |
| O=C(NO)c1cnc(N2CCN(Cc3ccc4ccccc4c3)CC2)nc1 [Co. No. 6] | 8.148 | 59.3 | solubility [3]: > 454 µM; melting point: > 260 °C |
